Data published in PubChem BioAssay (NCI).
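Briefly, cells in 96-well plates were exposed to five compound concentrations for 48 h, and endpoints were estimated by linear interpolation. TGI: concentration producing complete growth inhibition.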

Legend:
Experiment in all cases: NCI-60 cell line screen, 48 h
786-0 renal = test system: 786-0 renal
A498 renal = test system: A498 renal
A549 NSCLC = test system: A549 NSCLC
ACHN renal = test system: ACHN renal
CCRF-CEM leukemia = test system: CCRF-CEM leukemia
COLO 205 colon = test system: COLO 205 colon
DLD-1 colon = test system: DLD-1 colon
DMS 114 small cell lung = test system: DMS 114 small cell lung
DMS 273 small cell lung = test system: DMS 273 small cell lung
DU-145 prostate = test system: DU-145 prostate
HCC-2998 colon = test system: HCC-2998 colon
HCT-116 colon = test system: HCT-116 colon
HCT-15 colon = test system: HCT-15 colon
HL-60(TB) leukemia = test system: HL-60(TB) leukemia
HOP-18 NSCLC = test system: HOP-18 NSCLC
HOP-62 NSCLC = test system: HOP-62 NSCLC
HOP-92 NSCLC = test system: HOP-92 NSCLC
HT29 colon = test system: HT29 colon
IGROV1 ovarian = test system: IGROV1 ovarian
K-562 leukemia = test system: K-562 leukemia
KM12 colon = test system: KM12 colon
LOX IMVI melanoma = test system: LOX IMVI melanoma
LXFL 529 NSCLC = test system: LXFL 529 NSCLC
M14 melanoma = test system: M14 melanoma
M19-MEL melanoma = test system: M19-MEL melanoma
MALME-3M melanoma = test system: MALME-3M melanoma
MCF7 breast = test system: MCF7 breast
MDA-MB-231 breast = test system: MDA-MB-231 breast
MDA-MB-435 = test system: MDA-MB-435
MDA-N = test system: MDA-N
MOLT-4 leukemia = test system: MOLT-4 leukemia
NCI-H226 lung = test system: NCI-H226 lung
NCI-H23 lung = test system: NCI-H23 lung
NCI-H460 lung = test system: NCI-H460 lung
NCI-H522 lung = test system: NCI-H522 lung
NCI/ADR-RES ovarian = test system: NCI/ADR-RES ovarian
OVCAR-3 ovarian = test system: OVCAR-3 ovarian
OVCAR-4 ovarian = test system: OVCAR-4 ovarian
OVCAR-5 ovarian = test system: OVCAR-5 ovarian
PC-3 prostate = test system: PC-3 prostate
RXF 393 renal = test system: RXF 393 renal
SF-268 CNS = test system: SF-268 CNS
SF-295 CNS = test system: SF-295 CNS
SF-539 CNS = test system: SF-539 CNS
SK-MEL-2 melanoma = test system: SK-MEL-2 melanoma
SK-MEL-28 melanoma = test system: SK-MEL-28 melanoma
SK-MEL-5 melanoma = test system: SK-MEL-5 melanoma
SK-OV-3 ovarian = test system: SK-OV-3 ovarian
SN12C renal = test system: SN12C renal
SNB-19 CNS = test system: SNB-19 CNS
SNB-75 CNS = test system: SNB-75 CNS
SNB-78 CNS = test system: SNB-78 CNS
SR leukemia = test system: SR leukemia
SW-620 colon = test system: SW-620 colon
T-47D breast = test system: T-47D breast
TK-10 renal = test system: TK-10 renal
U251 CNS = test system: U251 CNS
UACC-257 melanoma = test system: UACC-257 melanoma
UACC-62 melanoma = test system: UACC-62 melanoma
UO-31 renal = test system: UO-31 renal
XF 498 CNS = test system: XF 498 CNS
CAKI-1 renal = test system: CAKI-1 renal
EKVX NSCLC = test system: EKVX NSCLC
KM20L2 colon = test system: KM20L2 colon
OVCAR-8 ovarian = test system: OVCAR-8 ovarian
RPMI-8226 leukemia = test system: RPMI-8226 leukemia

## O=c1cc(-c2ccccc2F)[nH]c2cc3c(cc12)OCO3
786-0 renal
  TGI: 28.8 µM
A498 renal
  TGI: 2.13 µM
A549 NSCLC
  TGI: > 100 µM
ACHN renal
  TGI: > 100 µM
CCRF-CEM leukemia
  TGI: > 17.7 µM
COLO 205 colon
  TGI: 0.281 µM
DLD-1 colon
  TGI: 2.82 µM
DMS 114 small cell lung
  TGI: 51.7 µM
DMS 273 small cell lung
  TGI: > 100 µM
DU-145 prostate
  TGI: 0.48 µM
HCC-2998 colon
  TGI: 0.399 µM
HCT-116 colon
  TGI: > 58.5 µM
HCT-15 colon
  TGI: 4.22 µM
HL-60(TB) leukemia
  TGI: 1.09 µM
HOP-18 NSCLC
  TGI: 61.1 µM
HOP-62 NSCLC
  TGI: > 21 µM
HOP-92 NSCLC
  TGI: > 100 µM
HT29 colon
  TGI: 0.643 µM
IGROV1 ovarian
  TGI: > 100 µM
K-562 leukemia
  TGI: > 15.7 µM
KM12 colon
  TGI: 17.1 µM
LOX IMVI melanoma
  TGI: > 78.8 µM
LXFL 529 NSCLC
  TGI: 16.5 µM
M14 melanoma
  TGI: 5.1 µM
M19-MEL melanoma
  TGI: > 100 µM
MALME-3M melanoma
  TGI: > 47.3 µM
MCF7 breast
  TGI: > 50.9 µM
MDA-MB-231 breast
  TGI: 3.34 µM
MDA-MB-435
  TGI: 0.0217 µM
MDA-N
  TGI: 0.0396 µM
MOLT-4 leukemia
  TGI: > 18.3 µM
NCI-H226 lung
  TGI: 1.81 µM
NCI-H23 lung
  TGI: 6.8 µM
NCI-H460 lung
  TGI: > 32.3 µM
NCI-H522 lung
  TGI: 0.238 µM
NCI/ADR-RES ovarian
  TGI: 0.246 µM
OVCAR-3 ovarian
  TGI: 0.779 µM
OVCAR-4 ovarian
  TGI: > 100 µM
OVCAR-5 ovarian
  TGI: > 100 µM
PC-3 prostate
  TGI: > 100 µM
RXF 393 renal
  TGI: > 100 µM
SF-268 CNS
  TGI: > 100 µM
SF-295 CNS
  TGI: 9.84 µM
SF-539 CNS
  TGI: 0.357 µM
SK-MEL-2 melanoma
  TGI: > 100 µM
SK-MEL-28 melanoma
  TGI: > 100 µM
SK-MEL-5 melanoma
  TGI: 4.41 µM
SK-OV-3 ovarian
  TGI: 14.2 µM
SN12C renal
  TGI: > 27.1 µM
SNB-19 CNS
  TGI: 6.95 µM
SNB-75 CNS
  TGI: 17.3 µM
SNB-78 CNS
  TGI: > 100 µM
SR leukemia
  TGI: > 100 µM
SW-620 colon
  TGI: > 100 µM
T-47D breast
  TGI: > 100 µM
TK-10 renal
  TGI: 98.2 µM
U251 CNS
  TGI: 22.5 µM
UACC-257 melanoma
  TGI: > 77.5 µM
UACC-62 melanoma
  TGI: > 100 µM
UO-31 renal
  TGI: > 100 µM
XF 498 CNS
  TGI: 91.7 µM

## CCC1C(=O)OCc2c1cc1n(c2=O)CCC12OCCO2 (stereo not given)
786-0 renal
  TGI: > 100 µM
A498 renal
  TGI: > 100 µM
A549 NSCLC
  TGI: > 100 µM
ACHN renal
  TGI: > 100 µM
CAKI-1 renal
  TGI: > 100 µM
CCRF-CEM leukemia
  TGI: > 100 µM
COLO 205 colon
  TGI: > 100 µM
DLD-1 colon
  TGI: > 100 µM
DMS 114 small cell lung
  TGI: > 100 µM
DMS 273 small cell lung
  TGI: > 100 µM
EKVX NSCLC
  TGI: > 100 µM
HCC-2998 colon
  TGI: > 100 µM
HCT-116 colon
  TGI: > 100 µM
HCT-15 colon
  TGI: > 100 µM
HL-60(TB) leukemia
  TGI: > 100 µM
HOP-62 NSCLC
  TGI: > 100 µM
HOP-92 NSCLC
  TGI: > 100 µM
HT29 colon
  TGI: > 100 µM
IGROV1 ovarian
  TGI: > 100 µM
K-562 leukemia
  TGI: > 100 µM
KM12 colon
  TGI: > 100 µM
KM20L2 colon
  TGI: > 100 µM
LOX IMVI melanoma
  TGI: > 100 µM
LXFL 529 NSCLC
  TGI: > 100 µM
M14 melanoma
  TGI: > 100 µM
M19-MEL melanoma
  TGI: > 100 µM
MOLT-4 leukemia
  TGI: > 100 µM
NCI-H226 lung
  TGI: > 100 µM
NCI-H23 lung
  TGI: > 100 µM
NCI-H460 lung
  TGI: > 100 µM
NCI-H522 lung
  TGI: > 100 µM
OVCAR-4 ovarian
  TGI: > 100 µM
OVCAR-5 ovarian
  TGI: > 100 µM
OVCAR-8 ovarian
  TGI: > 100 µM
RPMI-8226 leukemia
  TGI: > 100 µM
SF-268 CNS
  TGI: > 100 µM
SF-295 CNS
  TGI: > 100 µM
SF-539 CNS
  TGI: > 100 µM
SK-MEL-2 melanoma
  TGI: > 100 µM
SK-MEL-28 melanoma
  TGI: > 100 µM
SK-MEL-5 melanoma
  TGI: > 100 µM
SK-OV-3 ovarian
  TGI: > 100 µM
SN12C renal
  TGI: > 100 µM
SNB-19 CNS
  TGI: > 100 µM
SNB-75 CNS
  TGI: > 100 µM
SNB-78 CNS
  TGI: > 100 µM
SR leukemia
  TGI: > 100 µM
SW-620 colon
  TGI: > 100 µM
TK-10 renal
  TGI: > 100 µM
U251 CNS
  TGI: > 100 µM
UACC-257 melanoma
  TGI: > 100 µM
UACC-62 melanoma
  TGI: > 100 µM
UO-31 renal
  TGI: > 100 µM
XF 498 CNS
  TGI: > 100 µM
